{"source": "ChEMBL document CHEMBL5244272", "about": "(Eur J Med Chem, 2021)", "key": {"[1]": {"test_system": "Plasmodium falciparum", "assay": "Potency index, ratio of artemisinin IC50 to test compound IC50 for Plasmodium falciparum K1", "assay_type": "functional"}, "[2]": {"test_system": "Plasmodium falciparum", "assay": "Potency index, ratio of artemisinin IC50 to test compound IC50 for Plasmodium falciparum HB3", "assay_type": "functional"}, "[3]": {"test_system": "Plasmodium yoelii", "assay": "Antimalarial activity against multidrug resistant Plasmodium yoelii infected in swiss mouse assessed as reduction in parasitaemia at 96 mg/kg, po measured on day 4", "assay_type": "functional", "design": "scale not given: the % may be the effect or the level left", "settings": "time 4 day"}, "[4]": {"test_system": "Plasmodium yoelii", "assay": "Antimalarial activity against multidrug resistant Plasmodium yoelii infected in swiss mouse assessed as increase in survival at 96 mg/kg, po after 28 days", "assay_type": "functional", "settings": "time 28 day"}, "[5]": {"test_system": "Plasmodium berghei", "assay": "Antimalarial activity against Plasmodium berghei ANKA infected in mouse at 30 mg/kg", "assay_type": "functional"}, "[6]": {"test_system": "Plasmodium falciparum", "assay": "Antimalarial activity against Plasmodium falciparum 3D7", "assay_type": "functional, organism-based"}, "[7]": {"test_system": "Plasmodium falciparum", "assay": "Antimalarial activity against ART-resistant Plasmodium falciparum harboring R539T mutant assessed as increase in survival at 700 nM", "assay_type": "functional"}, "[8]": {"test_system": "Plasmodium berghei", "assay": "Antimalarial activity against Plasmodium berghei infected in mouse assessed cured animal rate measured after 25 days", "assay_type": "functional", "settings": "time 25 day"}, "[9]": {"test_system": "Plasmodium berghei", "assay": "Antimalarial activity against Plasmodium berghei infected in mouse", "assay_type": "functional"}, "[10]": {"test_system": "Plasmodium chabaudi", "assay": "Antimalarial activity against Plasmodium chabaudi infected in mouse", "assay_type": "functional"}, "[11]": {"test_system": "Plasmodium falciparum", "assay": "Antimalarial activity against Plasmodium falciparum K1", "assay_type": "functional, organism-based"}, "[12]": {"test_system": "Plasmodium berghei", "assay": "Antimalarial activity against Plasmodium berghei infected in mouse assessed reduction in parasitemia measured after 4 days", "assay_type": "functional", "design": "scale not given: the % may be the effect or the level left", "settings": "time 4 day"}, "[13]": {"test_system": "Plasmodium berghei", "assay": "Antimalarial activity against Plasmodium berghei infected in mouse assessed increase in survival time", "assay_type": "functional"}, "[14]": {"test_system": "Plasmodium falciparum", "assay": "Antimalarial activity against chloroquine sensitive Plasmodium falciparum FCR-3", "assay_type": "functional, organism-based"}, "[15]": {"test_system": "Plasmodium falciparum", "assay": "Antimalarial activity against chloroquine-sensitive Plasmodium falciparum NF54", "assay_type": "functional, organism-based"}, "[16]": {"test_system": "Plasmodium falciparum", "assay": "Antimalarial activity against Plasmodium falciparum SGE2", "assay_type": "functional, organism-based"}, "[17]": {"test_system": "Plasmodium falciparum", "assay": "Antimalarial activity against chloroquine resistant Plasmodium falciparum", "assay_type": "functional, organism-based"}, "[18]": {"test_system": "Plasmodium falciparum", "assay": "Antimalarial activity against Plasmodium falciparum D6", "assay_type": "functional, organism-based"}, "[19]": {"test_system": "Plasmodium berghei", "assay": "Antimalarial activity against Plasmodium berghei infected in sc dosed mouse", "assay_type": "functional", "settings": "Plasmodium berghei"}, "[20]": {"assay": "Half life in human", "assay_type": "ADME"}, "[21]": {"test_system": "Plasmodium falciparum", "assay": "Antimalarial activity against Plasmodium falciparum Dd2", "assay_type": "functional, organism-based"}, "[22]": {"test_system": "Plasmodium falciparum", "assay": "Antimalarial activity against chloroquine-sensitive Plasmodium falciparum HB3", "assay_type": "functional, organism-based"}, "[23]": {"test_system": "Plasmodium berghei", "assay": "Antimalarial activity against Plasmodium berghei N strain infected in mouse at 30 mg/kg, ip administered once daily for 4 days", "assay_type": "functional", "settings": "time 4 day"}, "[24]": {"test_system": "Plasmodium falciparum", "assay": "Antimalarial activity against Plasmodium falciparum HB3", "assay_type": "functional, organism-based"}, "[25]": {"test_system": "Cytomegalovirus", "assay": "Antiviral activity against HCMV", "assay_type": "functional, organism-based", "settings": "Human betaherpesvirus 5"}, "[26]": {"test_system": "Plasmodium falciparum", "assay": "Potency index, ratio of artesunate IC50 to test compound IC50 for Plasmodium falciparum NF54", "assay_type": "functional"}, "[27]": {"test_system": "Plasmodium berghei", "assay": "Antimalarial activity against Plasmodium berghei ANKA infected in mouse at 30 mg/kg, po", "assay_type": "functional"}, "[28]": {"test_system": "Plasmodium falciparum", "assay": "Antimalarial activity against Plasmodium falciparum NF54", "assay_type": "functional, organism-based"}, "[29]": {"test_system": "ADR5000 cell line", "assay": "Cytotoxicity against human CEM/ADR5000 cells", "assay_type": "functional, cell-based"}, "[30]": {"test_system": "CCRF-CEM", "assay": "Cytotoxicity against human CCRF-CEM cells", "assay_type": "functional, cell-based"}, "[31]": {"settings": "read-out: ED50 (the source's name)"}}}
{"smiles": "COP(=O)(OCC[C@H]1O[C@@H]2O[C@]3(C)CC[C@H]4[C@H](C)CC[C@@H]([C@H]1C)[C@@]24OO3)OCC[C@H]1O[C@@H]2O[C@]3(C)CC[C@H]4[C@H](C)CC[C@@H]([C@H]1C)[C@@]24OO3", "values": [{"measurement": "Ratio IC50", "setting": "[1]", "value": ">50"}, {"measurement": "Ratio IC50", "setting": "[2]", "value": ">50"}]}
{"smiles": "C=C(c1ccccc1)C1COC2(OO1)C1CC3CC(C1)CC2C3", "note": "(centres undefined)", "values": [{"measurement": "Activity", "setting": "[3]", "value": 96, "unit": "%"}, {"measurement": "Activity", "setting": "[4]", "value": 80, "unit": "%"}]}
{"smiles": "FC1CCN(CCOc2ccc(C3CCC4(CC3)OOC3(OO4)C4CC5CC(C4)CC3C5)cc2)CC1", "note": "(centres undefined)", "values": [{"measurement": "Activity", "setting": "[5]", "value": 99.65, "unit": "%"}, {"measurement": "IC50", "setting": "[6]", "value": 5.1, "unit": "nM"}]}
{"smiles": "CC(C)(N)CNC(=O)C[C@H]1CC[C@]2(CC1)OO[C@]1(O2)C2CC3CC(C2)CC1C3", "note": "[OZ277]", "values": [{"measurement": "Activity", "setting": "[7]", "value": 0.01, "unit": "%"}, {"measurement": "Activity", "setting": "[8]", "value": 60, "unit": "%"}, {"measurement": "Activity", "setting": "[9]", "value": 67, "unit": "%"}]}
{"smiles": "C[C@H]1[C@@H](CCc2ccc(C(=O)O)cc2)O[C@@H]2O[C@]3(C)CC[C@H]4[C@H](C)CC[C@@H]1[C@@]24OO3", "values": [{"measurement": "Activity", "setting": "[10]", "value": 98.7, "unit": "%"}, {"measurement": "EC50", "setting": "[6]; [31]", "value": 1.1, "unit": "ng/mL"}, {"measurement": "EC50", "setting": "[11]; [31]", "value": 0.6, "unit": "ng/mL"}]}
{"smiles": "CCN(CC)Cc1cc(C2CCC3(CC2)OOC2(OO3)C3CC4CC(C3)CC2C4)ccc1O", "note": "(centres undefined)", "values": [{"measurement": "Activity", "setting": "[8]", "value": 66, "unit": "%"}, {"measurement": "Activity", "setting": "[12]", "value": ">99.7", "unit": "%"}, {"measurement": "Time", "setting": "[13]", "value": 27, "unit": "days"}]}
{"smiles": "C[C@@H]1CC[C@H]2[C@@H](C)C(=O)O[C@@H]3O[C@@]4(C)CC[C@@H]1[C@]32OO4", "note": "[ARTEMISININ]", "values": [{"measurement": "IC50", "setting": "[14]", "value": 1.4, "unit": "nM"}, {"measurement": "IC50", "setting": "[15]", "value": 18.4, "unit": "nM"}, {"measurement": "IC50", "setting": "[16]", "value": 9, "unit": "nM"}, {"measurement": "IC50", "setting": "[17]", "value": 0.001, "unit": "mg/cm3"}, {"measurement": "IC50", "setting": "[18]", "value": 55, "unit": "nM"}, {"measurement": "ED50", "setting": "[19]", "value": 3, "unit": "mg/kg"}, {"measurement": "EC50", "setting": "[11]; read-out: EC50", "value": 3.6, "unit": "nM"}, {"measurement": "half-life", "setting": "[20]", "value": 2, "unit": "h"}, {"measurement": "IC50", "setting": "[21]", "value": 13, "unit": "nM"}, {"measurement": "IC50", "setting": "[22]", "value": 3.04, "unit": "nM"}, {"measurement": "Activity", "setting": "[23]", "value": 74.5, "unit": "%"}, {"measurement": "IC50", "setting": "[24]", "value": 7, "unit": "nM"}]}
{"smiles": "C[C@H]1[C@H](OC(=O)CCC(=O)OCCOC(=O)CC(=O)OCCOC(=O)CCC(=O)O[C@@H]2O[C@@H]3O[C@]4(C)CC[C@H]5[C@H](C)CC[C@@H]([C@H]2C)[C@@]35OO4)O[C@@H]2O[C@]3(C)CC[C@H]4[C@H](C)CC[C@@H]1[C@@]24OO3", "values": [{"measurement": "EC50", "setting": "[25]", "value": 0.57, "unit": "nM"}, {"measurement": "EC50", "setting": "[6]; read-out: EC50", "value": 1.4, "unit": "nM"}]}
{"smiles": "C[C@H]1[C@H](OC(=O)c2cccc3c2OCO3)O[C@@H]2O[C@]3(C)CC[C@H]4[C@H](C)CC[C@@H]1[C@@]24OO3", "values": [{"measurement": "IC50", "setting": "[15]", "value": 8.08, "unit": "nM"}, {"measurement": "Ratio IC50", "setting": "[26]", "value": 2.3}]}
{"smiles": "O=C(CC1CCC2(CC1)OOC1(OO2)C2CC3CC(C2)CC1C3)NC1CC1", "note": "(centres undefined)", "values": [{"measurement": "Activity", "setting": "[27]", "value": 100, "unit": "%"}]}
{"smiles": "Oc1ccc(C2CCC3(CC2)OOC2(OO3)C3CC4CC(C3)CC2C4)cc1CN1CCCC1", "note": "(centres undefined)", "values": [{"measurement": "IC50", "setting": "[28]", "value": 4.8, "unit": "nM"}, {"measurement": "Activity", "setting": "[12]", "value": ">99.7", "unit": "%"}, {"measurement": "IC50", "setting": "[11]", "value": 4.8, "unit": "nM"}, {"measurement": "Time", "setting": "[13]", "value": 25, "unit": "days"}]}
{"smiles": "C[C@H]1[C@H](OC(=O)CCC(=O)Nc2ccc3ncnc(Cc4ccc(Cl)c(Cl)c4)c3c2)O[C@@H]2O[C@]3(C)CC[C@H]4[C@H](C)CC[C@@H]1[C@@]24OO3", "values": [{"measurement": "EC50", "setting": "[29]", "value": 500, "unit": "nM"}, {"measurement": "EC50", "setting": "[30]", "value": 2800, "unit": "nM"}, {"measurement": "EC50", "setting": "[6]; read-out: EC50", "value": 1.4, "unit": "nM"}]}
